Here are results for 4 compounds from PMC4437783, “An Improved Method for P2X7R Antagonist Screening” (PLoS ONE, 2015).

What all share (type): cell-based
Assay [1] addresses T1, P2X7 receptor (mP2X7R) (Mus musculus, UniProt Q9Z1M0).
T1 construct: gene P2rx7; natively expressed in J774.G8 macrophages
T1 sequence (Q9Z1M0 1-595): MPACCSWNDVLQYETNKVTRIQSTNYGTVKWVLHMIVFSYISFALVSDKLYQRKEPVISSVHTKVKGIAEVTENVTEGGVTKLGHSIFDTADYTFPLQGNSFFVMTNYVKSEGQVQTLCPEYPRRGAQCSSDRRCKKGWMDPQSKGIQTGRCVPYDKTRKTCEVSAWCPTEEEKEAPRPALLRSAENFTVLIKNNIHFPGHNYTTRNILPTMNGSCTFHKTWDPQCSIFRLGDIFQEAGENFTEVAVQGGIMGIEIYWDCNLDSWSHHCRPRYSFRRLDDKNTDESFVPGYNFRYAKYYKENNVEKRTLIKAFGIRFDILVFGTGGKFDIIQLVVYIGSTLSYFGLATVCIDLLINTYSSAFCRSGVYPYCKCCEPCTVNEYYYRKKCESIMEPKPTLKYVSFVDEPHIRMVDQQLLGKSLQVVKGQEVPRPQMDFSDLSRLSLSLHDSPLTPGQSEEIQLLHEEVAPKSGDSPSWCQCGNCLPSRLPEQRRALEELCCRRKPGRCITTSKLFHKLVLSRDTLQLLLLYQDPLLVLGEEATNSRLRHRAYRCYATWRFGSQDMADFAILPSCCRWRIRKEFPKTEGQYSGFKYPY
As to the kind of experiment: inhibition of ATP-induced dye uptake in J774.G8 cells, plate reader.

Assay [2] addresses T1, P2X7 receptor (mP2X7R). Nature of the assay: inhibition of ATP-induced PI dye uptake in J774.G8 cells, plate reader.
Assay [3] concerns the target T1, P2X7 receptor (mP2X7R). Nature of the assay: agonist dose-response, PI dye uptake in J774.G8 cells, plate reader.
Assay [4] deals with T1, P2X7 receptor (mP2X7R). As to the kind of experiment: block of ATP-induced PI dye uptake in J774.G8 cells at a single concentration ([…]).
The target of another assay is T2, P2X7 receptor (P2X7R) (Homo sapiens, UniProt Q99572).
T2 construct: gene P2RX7; native in U937 human monocyte cells
T2 sequence (Q99572 1-595): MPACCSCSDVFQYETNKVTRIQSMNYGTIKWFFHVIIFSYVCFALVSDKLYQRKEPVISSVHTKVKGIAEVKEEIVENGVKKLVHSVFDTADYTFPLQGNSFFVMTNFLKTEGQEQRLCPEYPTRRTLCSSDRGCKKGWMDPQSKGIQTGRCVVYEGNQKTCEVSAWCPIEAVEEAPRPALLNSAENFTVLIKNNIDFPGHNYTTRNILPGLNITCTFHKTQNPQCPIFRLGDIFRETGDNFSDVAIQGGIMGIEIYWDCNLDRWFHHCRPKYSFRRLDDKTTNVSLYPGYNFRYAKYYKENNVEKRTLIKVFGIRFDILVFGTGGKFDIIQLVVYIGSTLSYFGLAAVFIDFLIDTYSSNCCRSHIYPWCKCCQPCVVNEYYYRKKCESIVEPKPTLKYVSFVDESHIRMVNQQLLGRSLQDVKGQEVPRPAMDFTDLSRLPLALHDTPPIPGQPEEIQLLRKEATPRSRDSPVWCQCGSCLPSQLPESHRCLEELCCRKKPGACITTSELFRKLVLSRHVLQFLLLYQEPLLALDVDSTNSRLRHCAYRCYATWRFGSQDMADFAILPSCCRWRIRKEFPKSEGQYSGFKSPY
As to the kind of experiment: block of ATP-induced PI dye uptake in U937 cells at a single concentration ([…]).

For the compound `Nc1ncnc2c1ncn2[C@@H](C=O)O[C@@H](C=O)COP(=O)(O)OP(=O)(O)OP(=O)(O)O` [OATP, oxidized ATP], the IC50 against P2X7 receptor (mP2X7R) [1] was in the range of 173 to 285 µM. Compound `CCOc1ccc(Nc2ccc(/C(=C3C=C/C(=[N+](/CC)Cc4cccc(S(=O)(=O)[O-])c4)C=C/3C)c3ccc(N(CC)Cc4cccc(S(=O)(=O)O)c4)cc3C)cc2)cc1` [BBG, Brilliant Blue G] had an IC50 at P2X7 receptor (mP2X7R) [2] of 1.3 to 2.6 µM.

For the compound `Nc1ncnc2c1ncn2[C@@H]1O[C@H](COP(=O)(O)OP(=O)(O)OP(=O)(O)O)[C@@H](O)[C@H]1O` [ATP], the midpoint of the response at P2X7 receptor (mP2X7R) [3], the EC50, lay at 700 ± 70 µM. With `O=C1CSC(=O)N1C(CCc1ccncc1)COc1ccc(-c2cccc([N+](=O)[O-])c2)cc1` (centres unmarked) [AZ, AZ11645373], the “block of ATP-induced PI dye uptake in J774.G8 cells at a single concentration (1)” value at P2X7 receptor (mP2X7R) [4] is “the treatment with the selective P2X7R antagonist AZ11645373 blocked the dye uptake”. Also, on P2X7 receptor (P2X7R), the “block of ATP-induced PI dye uptake in U937 cells at a single concentration (10 μ)” value was “the treatment with the selective P2X7R antagonist AZ11645373 blocked the dye uptake”.
